PMC3090393, “New Noncovalent Inhibitors of Penicillin-Binding Proteins from Penicillin-Resistant Bacteria” (PLoS ONE, 2011)

Experiments:
PBP2x 5204 = PBP2x 5204 (Streptococcus pneumoniae, UniProt P59676); test: PBP2x 5204 enzymatic inhibition assay (S2d hydrolysis, DTNB); assay type: biochemical, Streptococcus pneumoniae strain 5204
Experimental: PBP2x-5204 from Streptococcus pneumonia and N-benzoyl-D-alanyl-thioglycolate S2d[21], [22] were prepared as previously described. All assays with PBP2x 5204 were carried out in 96-well microtiter plates (Brand, Wertheim, Germany). PBP2x 5204 (0.6 µM) was incubated in the presence of the potential inhibitors in 10 mM sodium phosphate buffer (pH 7.0) containing 70 mM D-alanine and 0.01 mg/mL BSA, for 4 h at 25°C. This preincubation was used to also detect slow binding inhibitors. After the preincubation, the RA of PBP2x 5204 was determined. The initial rate of hydrolysis of 1 mM S2d in the presence of 1 mM DTNB was determined by monitoring the increase in absorbance at 412 nm (DTNB: ε[Δ ε] = […]) using a microplate absorbance reader (Power Wave X, Biotek Instruments, Winooski, U.S.A.). The rate of spontaneous hydrolysis of S2d in the presence of the potential inhibitors was also determined in the absence of PBP2x 5204. All of the assays were carried out in triplicate. The determination of the RA of PBP2x 5204 in the absence of inhibitors was carried out six times on each plate. A test compound was considered as an inhibitor if the RA was <80%. In this case, to reveal false positives, the assays were also carried out under the same conditions in the presence of 0.01% Triton X-100. As described in the literature, promiscuous inhibitors (false positives) are slow binding, noncompetitive inhibitors. To avoid detailed kinetic investigations, it is possible to identify such compounds by carrying out the assays in the presence of Triton X-100[14], [19]. Promiscuous inhibitors show no inhibition in the presence of Triton X-100. The IC50 values in the presence of Triton X-100 were determined if the RAs were <50%. (RA: ∼50%, IC50∼c, c: concentration of compound in the assay; RA >50%, IC50 > c). The RA was measured over a range of concentrations, from which the IC50 values were determined by non-linear regression analysis, using Sigma Plot (Systat software) and fitting the data to the equation y = y0+(a×b)/(b+x)[23].

PBP2x 5204, sequence (P59676 49-750): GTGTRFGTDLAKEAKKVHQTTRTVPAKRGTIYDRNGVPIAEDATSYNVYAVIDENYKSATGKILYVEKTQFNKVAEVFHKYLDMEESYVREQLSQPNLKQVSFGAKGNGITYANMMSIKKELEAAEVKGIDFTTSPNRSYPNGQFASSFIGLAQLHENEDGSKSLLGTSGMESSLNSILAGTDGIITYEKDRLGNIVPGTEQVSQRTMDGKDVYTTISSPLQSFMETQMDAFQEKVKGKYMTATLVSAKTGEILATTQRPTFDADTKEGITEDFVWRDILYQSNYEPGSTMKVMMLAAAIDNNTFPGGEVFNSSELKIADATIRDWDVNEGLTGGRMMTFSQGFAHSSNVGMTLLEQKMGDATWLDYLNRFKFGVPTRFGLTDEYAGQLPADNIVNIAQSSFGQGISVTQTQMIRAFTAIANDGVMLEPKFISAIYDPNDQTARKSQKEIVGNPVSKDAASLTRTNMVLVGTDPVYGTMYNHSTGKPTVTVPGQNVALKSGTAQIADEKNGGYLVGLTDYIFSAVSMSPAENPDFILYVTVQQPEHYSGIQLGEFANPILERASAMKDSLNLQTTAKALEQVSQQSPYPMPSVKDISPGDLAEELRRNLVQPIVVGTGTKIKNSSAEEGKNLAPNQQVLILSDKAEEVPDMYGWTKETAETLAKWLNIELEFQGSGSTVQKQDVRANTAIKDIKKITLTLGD

For `CCCCOc1ccc2cc(S(=O)(=O)Nc3ccccc3C(=O)O)ccc2c1` [compound 1, 2-(6-butoxynaphthalene-2-sulfonamido)benzoic acid], the IC50 (PBP2x 5204; read-out: PBP2x5204 IC50, in the presence of 0.01% Triton X-100) was 391 µM, the “PBP2x5204 RA [%]” value (PBP2x 5204; residual activity of the enzyme at 500 µM inhibitor, 240 min) was 38% and the melting point was 192 to 194 °C.
